This passage reports solubility in water results from US20050107438A1, “Pharmaceutical composition comprising 3-[(2-{[4-(Hexyloxycarbonylaminoiminomethyl) phenylamino]-methyl}-1-methyl-1H-benzimidazol-5-carbonyl)-pyridin-2-yl-amino]-propionic acid ethyl ester or a salt therefore” (Boehringer Ingelheim International GmbH, priority 2003, published 2005).

This data set in a line: Solubility of the compound in water as a function of pH. Format: physicochemical. The source says: Therefore, pantoprazole which serves to raise the pH of the stomach was given to the test subjects in one branch of treatment in the clinical trials.

Structures are written as SMILES.

`CCCCCCOC(=O)NC(=N)c1ccc(NCc2nc3cc(C(=O)N(CCC(=O)OCC)c4ccccn4)ccc3n2C)cc1` [compound of formula (I), ethyl 3-[(2-{[4-(hexyloxycarbonylaminoiminomethyl)phenylamino]methyl}-1-methyl-1H-benzimidazole-5-carbonyl)pyridin-2-ylamino]propionate]: the solubility in water entry is “dissolves relatively easily” (low pH values) and “virtually insoluble” (pH levels above 5, definition of the European Pharmacopoeia).
